{"source": "patent US20210198277A1", "about": "“AMINE-SUBSTITUTED ARYL OR HETEROARYL COMPOUNDS” (Epizyme, Inc., priority 2016, published 2021)", "data": [{"biological_target": "T1, EHMT2 (Homo sapiens, UniProt Q96KQ7)", "T1 construct": "host or cells: MDA-MB-231", "T1 sequence (Q96KQ7 1-1210)": "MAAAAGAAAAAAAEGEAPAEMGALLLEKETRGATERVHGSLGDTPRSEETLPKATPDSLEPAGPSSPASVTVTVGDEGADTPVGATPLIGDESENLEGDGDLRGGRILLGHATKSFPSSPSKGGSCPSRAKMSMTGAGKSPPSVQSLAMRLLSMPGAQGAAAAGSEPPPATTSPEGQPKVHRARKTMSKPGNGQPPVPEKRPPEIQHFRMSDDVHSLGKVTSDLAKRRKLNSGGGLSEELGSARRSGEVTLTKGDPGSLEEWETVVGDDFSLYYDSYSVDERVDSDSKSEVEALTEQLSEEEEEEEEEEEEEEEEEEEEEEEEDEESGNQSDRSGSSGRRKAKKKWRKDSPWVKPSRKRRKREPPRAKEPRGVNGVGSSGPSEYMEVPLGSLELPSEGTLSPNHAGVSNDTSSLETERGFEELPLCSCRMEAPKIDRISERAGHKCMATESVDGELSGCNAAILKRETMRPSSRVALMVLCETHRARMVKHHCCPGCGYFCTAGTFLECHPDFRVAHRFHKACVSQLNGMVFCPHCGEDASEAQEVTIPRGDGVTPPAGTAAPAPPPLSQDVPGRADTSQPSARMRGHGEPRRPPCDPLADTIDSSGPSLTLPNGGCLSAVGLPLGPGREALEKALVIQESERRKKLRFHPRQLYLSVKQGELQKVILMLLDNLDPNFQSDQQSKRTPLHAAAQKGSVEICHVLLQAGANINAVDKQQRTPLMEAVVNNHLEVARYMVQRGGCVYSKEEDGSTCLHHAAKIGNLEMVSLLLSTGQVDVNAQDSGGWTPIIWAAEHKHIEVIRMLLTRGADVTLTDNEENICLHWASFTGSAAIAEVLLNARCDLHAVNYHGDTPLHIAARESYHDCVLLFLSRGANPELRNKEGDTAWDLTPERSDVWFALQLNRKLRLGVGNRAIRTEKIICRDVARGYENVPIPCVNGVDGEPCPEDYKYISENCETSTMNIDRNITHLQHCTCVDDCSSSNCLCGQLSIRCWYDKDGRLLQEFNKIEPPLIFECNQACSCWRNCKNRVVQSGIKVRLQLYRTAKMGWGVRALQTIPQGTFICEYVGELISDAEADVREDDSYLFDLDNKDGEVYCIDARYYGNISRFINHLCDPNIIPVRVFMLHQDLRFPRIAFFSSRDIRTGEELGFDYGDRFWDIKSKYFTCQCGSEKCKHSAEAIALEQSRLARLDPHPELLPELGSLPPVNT", "assay": "MDA-MB-231 H3K9me2 in-cell Western assay (EHMT2 ICW)", "assay_type": "cell-based", "settings": "Table II; MDA-MB-231 H3K9me2 in-cell Western; read-out: EHMT2 ICW (IC50 μM)", "from_the_text": "RPMI/Glutamax medium, Penicillin-Streptomycin, Heat Inactivated Fetal Bovine Serum, and D-PBS were purchased from Life Technologies (Grand Island, N.Y., USA). Odyssey blocking buffer, 800CW goat anti-mouse IgG (H+L) antibody, and Licor Odyssey Infrared Scanner were purchased from Licor Biosciences, Lincoln, Nebr., USA. […] 16% Paraformaldehyde was purchased from Electron Microscopy Sciences, Hatfield, Pa., USA).MDA-MB-231 cells were maintained in complete growth medium (RPMI supplemented with 10% v/v heat inactivated fetal bovine serum) and cultured at 37° C. under 5% CO2. UNC0638 was purchased from Sigma-Aldrich (St. Louis, Mo., USA).\nCompound (100 nL) was added directly to 384-well cell plate. MDA-MB-231 cells (ATCC) were seeded in assay medium (RPMI/Glutamax supplemented with 10% v/v heat inactivated fetal bovine serum and 1% Penicillin/Streptomycin, Life Technologies) at a concentration of 3,000 cells per well to a Poly-D-Lysine coated 384-well cell culture plate with 50 μL per well. […] Plates were incubated at room temperature for 30 minutes and then incubated at 37° C., 5% CO2 for additional 48 hours. After the incubation, 50 μL per well of 8% paraformaldehyde (Electron Microscopy Sciences) in PBS was added to the plates and incubated at room temperature for 20 minutes. […] Next, 60 μL per well of Odyssey blocking buffer (Licor Biosciences) was added to each plate and incubated for 1 hour at room temperature. Blocking buffer was removed and 20 μL of monoclonal primary antibody α-H3K9me2 (Abcam) diluted 1:800 in Odyssey buffer with 0.1% Tween 20 (v/v) were added and plates were incubated overnight (16 hours) at 4° C. Plates were washed 5 times with 100 μL per well of wash buffer. Next 20 μL per well of secondary antibody was added (1:500 800CW donkey anti-mouse IgG (H+L) antibody (Licor Biosciences), 1:1000 DRAQ5 (Cell Signaling Technology) in Odyssey buffer with 0.1% Tween 20 (v/v)) and incubated for 1 hour at room temperature. The plates were washed 5 times with 100 μL per well wash buffer then 2 times with 100 μL per well of water. Plates were allowed to dry at room temperature then imaged on a Licor Odyssey Infrared Scanner (Licor Biosciences) which measured integrated intensity at 700 nm and 800 nm wavelengths. Both 700 and 800 channels were scanned.\nFirst, the ratio for each well was determined by:\nThe average of the ratio values for each well was calculated and used to determine the percent inhibition for each test well in the plate. Control compound was serially diluted three-fold in DMSO for a total of 10 test concentrations beginning at 1 μM. Percent inhibition was calculated as: […]\nIC50 curves were generated using triplicate wells per concentration of compound. […] IC50 values were calculated using a non-linear regression (variable slope-four parameter fit model) with by the following formula: […]", "units": {"IC50": "µM"}, "values": [{"molecule": "COc1ccc(N(C)c2nccc(NCC3CCN(C(C)=O)CC3)n2)cc1OCCCN1CCCC1", "note": "[Compound 158]", "IC50": "> 10"}, {"molecule": "COc1ccc(Nc2nccc(NCC3CCN(C)CC3)n2)cc1OCCCNc1ccccc1", "note": "[Compound 159]", "IC50": "1 to 10"}, {"molecule": "COc1ccc(Nc2nccc(NCC3CCN(C(C)=O)CC3)n2)cc1OCCCNc1ccccc1", "note": "[Compound 160]", "IC50": "> 10"}, {"molecule": "COc1ccc(Nc2nccc(N3CCC(NC(C)=O)CC3)n2)cc1OCCCN1CCCC1", "note": "[Compound 161]", "IC50": "> 10"}, {"molecule": "COc1ccc(Nc2nccc(N3CCN(S(C)(=O)=O)CC3)n2)cc1OCCCN1CCCC1", "note": "[Compound 162]", "IC50": "> 10"}, {"molecule": "COc1ccc(Nc2cc(N(C)CC3CCN(C(C)=O)CC3)ccn2)cc1OCCCN1CCCC1", "note": "[Compound 163]", "IC50": "> 10"}, {"molecule": "COc1ccc(Nc2nccc(NCc3ccc4[nH]ncc4c3)n2)cc1OCCCN1CCCC1", "note": "[Compound 164]", "IC50": "> 10"}, {"molecule": "COc1ccc(Nc2nccc(NCc3ccc(=O)[nH]c3)n2)cc1OCCCN1CCCC1", "note": "[Compound 165]", "IC50": "> 10"}, {"molecule": "COc1ccc(Nc2nccc(NCC3CCN(C(C)=O)CC3)n2)cc1OCCC(=O)N1CCCC1", "note": "[Compound 166]", "IC50": "> 10"}, {"molecule": "COc1ccc(Nc2nccc(NCCc3ccccn3)n2)cc1OCCCN1CCCC1", "note": "[Compound 167]", "IC50": "0.1 to 1"}, {"molecule": "COc1ccc(Nc2nccc(N3CCN(c4ccccn4)CC3)n2)cc1OCCCN1CCCC1", "note": "[Compound 168]", "IC50": "1 to 10"}, {"molecule": "COc1ccc(Nc2nccc(N3CCS(=O)(=O)CC3)n2)cc1OCCCN1CCCC1", "note": "[Compound 169]", "IC50": "> 10"}, {"molecule": "COc1ccc(Nc2nccc(N3CC(C(=O)N(C)C)C3)n2)cc1OCCCN1CCCC1", "note": "[Compound 170]", "IC50": "> 10"}, {"molecule": "COc1ccc(Nc2nccc(N(C)C)n2)cc1OCCCN1CCCC1", "note": "[Compound 171]", "IC50": "1 to 10"}, {"molecule": "COc1ccc(Nc2nccc(N(C)CC3CCN(C(C)=O)CC3)n2)cc1OCCCN1CCCC1", "note": "[Compound 172]", "IC50": "> 10"}, {"molecule": "COc1ccc(Nc2cc(OCC3CCN(C(C)=O)CC3)ccn2)cc1OCCCN1CCCC1", "note": "[Compound 173]", "IC50": "> 10"}, {"molecule": "COc1ccc(Nc2nccc(C)n2)cc1OCCCN1CCCC1", "note": "[Compound 174]", "IC50": "> 10"}, {"molecule": "COc1ccc(Nc2nc(C)cc(C)n2)cc1OCCCN1CCCC1", "note": "[Compound 175]", "IC50": "> 10"}, {"molecule": "CNc1cccc(Nc2ccc(OC)c(OCCCN3CCCC3)c2)n1", "note": "[Compound 176]", "IC50": "> 10"}, {"molecule": "COCCN(C)c1ccnc(Nc2ccc(OC)c(OCCCN3CCCC3)c2)n1", "note": "[Compound 177]", "IC50": "> 10"}, {"molecule": "COc1ccc(Nc2nccc(NCCC3CCOCC3)n2)cc1OCCCN1CCCC1", "note": "[Compound 178]", "IC50": "0.1 to 1"}, {"molecule": "COc1ccc(Nc2nccc(N3CC(C(N)=O)C3)n2)cc1OCCCN1CCCC1", "note": "[Compound 179]", "IC50": "> 10"}, {"molecule": "COc1ccc(Nc2nccc(-n3cc(C)cn3)n2)cc1OCCCN1CCCC1", "note": "[Compound 180]", "IC50": "> 10"}, {"molecule": "COc1ccc(Nc2ncc(CO)cn2)cc1OCCCN1CCCC1", "note": "[Compound 181]", "IC50": "> 10"}, {"molecule": "COc1cnc(Nc2cc(NCC3CCN(C(C)=O)CC3)ccn2)cc1OCCCN1CCCC1", "note": "[Compound 182]", "IC50": "> 10"}, {"molecule": "COc1ccc(Nc2nccc(NCC3CCN(C(C)=O)CC3)n2)cc1OCC(C)CN1CCCC1", "note": "(centres unmarked) [Compound 183]", "IC50": "1 to 10"}, {"molecule": "COc1ccc(Nc2cncc(NCC3CCN(C(C)=O)CC3)c2)cc1OCCCN1CCCC1", "note": "[Compound 184]", "IC50": "> 10"}, {"molecule": "COc1ccc(Nc2cc(NCC3CCN(C(C)=O)CC3)cnn2)cc1OCCCN1CCCC1", "note": "[Compound 185]", "IC50": "> 10"}, {"molecule": "CNc1cc(C)nc(Nc2ccc(OC)c(OCCCN3CC[C@@H](F)C3)c2)n1", "note": "[Compound 186]", "IC50": "0.1 to 1"}, {"molecule": "CNc1nc(Nc2ccc(OC)c(OCCCN3CCCC3)c2)ncc1F", "note": "[Compound 187]", "IC50": "1 to 10"}, {"molecule": "CNc1cc(Nc2ccc(OC)c(OCCCN3CCCC3)c2)cnn1", "note": "[Compound 188]", "IC50": "> 10"}, {"molecule": "COc1ccc(Nc2nccc(NCc3ccc4nccn4c3)n2)cc1OCCCN1CCCC1", "note": "[Compound 191]", "IC50": "0.1 to 1"}, {"molecule": "COc1ccc(Nc2nccc(NC3CN(C(C)=O)C3)n2)cc1OCCCN1CCCC1", "note": "[Compound 192]", "IC50": "1 to 10"}, {"molecule": "COc1ccc(Nc2nccc(NCCn3cccn3)n2)cc1OCCCN1CCCC1", "note": "[Compound 193]", "IC50": "0.1 to 1"}, {"molecule": "COc1ccc(Nc2nccc(NCC3CCN(C(C)=O)CC3)n2)cc1OC(C)CCN1CCCC1", "note": "(centres unmarked) [Compound 195]", "IC50": "1 to 10"}, {"molecule": "COc1ccc(Nc2nccc(NCC3CCN(S(C)(=O)=O)CC3)n2)cc1OCCCN1CCCC1", "note": "[Compound 199]", "IC50": "1 to 10"}, {"molecule": "CCOC(=O)N1CCC(CNc2ccnc(Nc3ccc(OC)c(OCCCN4CCCC4)c3)n2)CC1", "note": "[Compound 203]", "IC50": "0.1 to 1"}, {"molecule": "COc1ccc(Nc2nccc(NCC3CCOCC3)n2)cc1OCCN1CCOCC1", "note": "[Compound 204]", "IC50": "> 10"}]}]}
